Test results from patent publication US11919902B2, “Aryl-bipyridine amine derivatives as phosphatidylinositol phosphate kinase inhibitors” (HiberCell, Inc., priority 2017, dated 2024).

Key:
GST tagged PIP4KtypeIIA = biological target: T1, GST tagged PIP4KtypeIIA (Homo sapiens, UniProt P48426); assay: ADP-glo kinase assay PIP4K 2A (PIP4KtypeIIA inhibition assay); assay type: biochemical; conditions: Table 3; compounds listed under IC50 range headings; 10 uM ATP, 0.5 nM PIP4KIIA
T1 construct: made in house; host or cells: E. coli
T1 sequence (P48426 1-406): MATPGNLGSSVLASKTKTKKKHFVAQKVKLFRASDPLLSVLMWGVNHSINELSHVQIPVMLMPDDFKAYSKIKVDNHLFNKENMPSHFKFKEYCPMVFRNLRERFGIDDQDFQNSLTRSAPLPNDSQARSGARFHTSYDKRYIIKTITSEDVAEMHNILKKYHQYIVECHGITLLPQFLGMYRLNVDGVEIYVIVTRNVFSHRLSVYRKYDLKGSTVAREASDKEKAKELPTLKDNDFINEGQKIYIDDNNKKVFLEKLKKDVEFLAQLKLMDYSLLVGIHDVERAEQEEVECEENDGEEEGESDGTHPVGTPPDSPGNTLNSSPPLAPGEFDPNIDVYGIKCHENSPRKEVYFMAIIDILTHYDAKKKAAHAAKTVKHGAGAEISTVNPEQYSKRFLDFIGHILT
Method in brief: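 Read-out was ADP-Glo luminescence converted to μM ADP, with IC50 plotted as % of no-inhibitor activity against log concentration. Reactions contained 10 μM ATP, 80 μM PI5P with DOPE carrier, and 0.5 nM GST-tagged PIP4KIIA (E. coli-expressed) in pH 7.3 HEPES/MgCl2 buffer with 5% DMSO. Enzyme and compound (≤4.8 μM) were preincubated 1 h at 27 °C before the 1 h reaction.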

[1] = biological target: T2, PIP4K2A (full length protein, SignalChem) (Homo sapiens, UniProt P48426); assay: Kinase Assay PIP4K2 A (Sprint); ADP-Glo biochemical assay; conditions: Table 2; compounds listed under IC50 range headings
T2 construct: 4 nM PIP4K2A (full length protein, SignalChem); purchased SignalChem
T2 sequence (P48426 1-406): T1 sequence (P48426 1-406)
Method in brief: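 ADP-Glo luminescence detected ADP after a 1 h RT reaction started with 60 μM ATP solution. Before that, full-length PIP4K2A (4 nM in mix) with 100 μM PI(5)P diC8 was pre-incubated 15 min with compounds in MOPS buffer pH 7.2, 25 mM MgCl2, 0.005% Tween 20. IC50 derived from % inhibition relative to DMSO over 10 three-fold concentrations.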

GST tagged PIP4KtypeIIB = biological target: T3, GST tagged PIP4KtypeIIB (Homo sapiens, UniProt P78356); assay: Trans-FI P kinase assay PIP4K2B (PIP4KtypeIIB inhibition assay); assay type: biochemical; conditions: Table 4; compounds listed under IC50 range headings; 100 uM GTP, 5 nM PIP4KIIB; read-out: Trans-FI P kinase assays: PIP4K2B IC50
T3 construct: made in house; host or cells: E. coli
T3 sequence (P78356 1-416): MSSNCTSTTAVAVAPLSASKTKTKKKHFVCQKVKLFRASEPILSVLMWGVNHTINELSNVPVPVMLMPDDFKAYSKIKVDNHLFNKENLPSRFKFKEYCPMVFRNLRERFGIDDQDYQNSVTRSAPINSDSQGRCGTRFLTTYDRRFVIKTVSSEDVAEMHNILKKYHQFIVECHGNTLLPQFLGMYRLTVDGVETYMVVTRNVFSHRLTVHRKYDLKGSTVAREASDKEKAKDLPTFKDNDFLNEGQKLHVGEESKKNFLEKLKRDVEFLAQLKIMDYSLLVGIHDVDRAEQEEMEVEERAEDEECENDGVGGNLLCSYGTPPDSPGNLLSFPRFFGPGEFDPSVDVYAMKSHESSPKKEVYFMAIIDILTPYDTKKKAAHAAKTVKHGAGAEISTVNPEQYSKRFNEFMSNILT
Method in brief: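 Transcreener FI fluorescence, converted to GDP by calibration, tracked product from 5 nM E. coli-expressed GST-PIP4KIIB acting on 80 uM PI5P (DOPE carrier) with 100 uM GTP. Compound (top 4.8 uM final, 5% DMSO) was preincubated 1 h at 27 C before the 2 h reaction; IC50 fitted from residual activity.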

SMILES	IC50 (GST tagged PIP4KtypeIIA) [nM]	IC50 [1] [nM]	IC50 (GST tagged PIP4KtypeIIB) [nM]
COCc1c(-c2ccncc2)cncc1-c1ccc(N2CCCC2=O)cc1 [Example 83, 1-(4-(4-(methoxymethyl)-[3,4′-bipyridin]-5-yl)phenyl)pyrrolidin-2-one]	> 5000	1000 to 2500	–
O=C1CCCN1c1ccc(-c2cncc(-n3cnc4ccccc43)c2)cc1 [Example 177, 1-(4-(5-(1H-benzo[d]imidazol-1-yl)pyridin-3-yl)phenyl)pyrrolidin-2-one]	100 to 1000	100 to 1000	100 to 1000
CN(C)C/C=C/C(=O)Nc1cccc(CCC(=O)NCc2cc(-c3cnc(N)c(-c4ccc(C(=O)N(C)C)cn4)c3)ccn2)c1 [Example 195, (E)-2′-amino-2″-((3-(3-(4-(dimethylamino)but-2-enamido)phenyl)propanamido)methyl)-N,N-dimethyl-[2,3′:5′,4″-terpyridine]-5-carboxamide]	> 5000	< 5000	2500 to 5000
CN(C)C(=O)c1ccc(-c2cc(-c3cccnc3N)cnc2N)nc1 [Example 120, 2′,2″-diamino-N,N-dimethyl-[2,3′:5′,3″-terpyridine]-5-carboxamide]	> 5000	< 5000	> 5000
CN(C)C(=O)c1ccc(-c2cc(-c3ccnc4[nH]c(C(=O)N5CCNCC5)cc34)cnc2N)nc1 [Example 140, 2′-amino-N,N-dimethyl-5′-(2-(piperazine-1-carbonyl)-1H-pyrrolo[2,3-b]pyridin-4-yl)-[2,3′-bipyridine]-5-carboxamide]	100 to 1000	100 to 1000	100 to 1000
CNC(=O)c1cc2c(-c3cncc(-c4ccc(C(=O)N(C)C)cc4)c3)ccnc2n1C [Example 13, 4-(5-(4-(dimethylcarbamoyl)phenyl)pyridin-3-yl)-N,1-dimethyl-1H-pyrrolo[2,3-b]pyridine-2-carboxamide]	2500 to 5000	1000 to 2500	1000 to 2500
CN(C)C(=O)c1ccc(-c2cc(-c3ccnc4[nH]c(C(=O)N5CC(C(N)=O)C5)cc34)cnc2N)nc1 [Example 130, 2′-amino-5′-(2-(3-carbamoylazetidine-1-carbonyl)-1H-pyrrolo[2,3-b]pyridin-4-yl)-N,N-dimethyl-[2,3′-bipyridine]-5-carboxamide]	100 to 1000	100 to 1000	100 to 1000
CN(C)C(=O)c1ccc(-c2cc(-c3cc(N)ncn3)cnc2N)nc1 [Example 217, 2′-amino-5′-(6-aminopyrimidin-4-yl)-N,N-dimethyl-[2,3′-bipyridine]-5-carboxamide]	100 to 1000	100 to 1000	100 to 1000
Nc1ncc(-c2ccnc3oc(C(=O)NCC4CC4)cc23)cc1-c1ccc(N2CCCC2=O)cc1 [Example 89, 4-(6-amino-5-(4-(2-oxopyrrolidin-1-yl)phenyl)pyridin-3-yl)-N-(cyclopropylmethyl)furo[2,3-b]pyridine-2-carboxamide]	1 to 10	1 to 5	1 to 10
Cn1ccc(-c2cncc(-c3ccc(N4CCCC4=O)cc3)c2)cc1=O [Example 33, 1′-methyl-5-(4-(2-oxopyrrolidin-1-yl)phenyl)-[3,4′-bipyridin]-2′(1′H)-one]	> 5000	< 5000	> 5000
CN(C)C(=O)c1ccc(-c2cncc(-c3c[nH]c4ncccc34)c2)cc1 [Example 10, 4-(5-(1H-pyrrolo[2,3-b]pyridin-3-yl)pyridin-3-yl)-N,N-dimethylbenzamide]	100 to 1000	100 to 1000	100 to 1000
Cc1[nH]c2ncc(C(=O)N(C)C)cc2c1-c1cncc(-c2ccc(N3CCCC3=O)cc2)c1 [Example 250, N,N,2-trimethyl-3-(5-(4-(2-oxopyrrolidin-1-yl)phenyl)pyridin-3-yl)-1H-pyrrolo[2,3-b]pyridine-5-carboxamide]	100 to 1000	5 to 100	100 to 1000
CN(C)C(=O)c1ccc(-c2cc(-c3ccnc4[nH]c(C(=O)N(C)C)cc34)cnc2N)nc1 [Example 127, 4-(2′-amino-5-(dimethylcarbamoyl)-[2,3′-bipyridin]-5′-yl)-N,N-dimethyl-1H-pyrrolo[2,3-b]pyridine-2-carboxamide]	100 to 1000	5 to 100	10 to 100
CN(C)C(=O)c1cc2c(-c3cncc(-c4ccc(N5CCCC5=O)cc4)c3)ccnc2o1 [Example 50, N,N-dimethyl-4-(5-(4-(2-oxopyrrolidin-1-yl)phenyl)pyridin-3-yl)furo[2,3-b]pyridine-2-carboxamide]	100 to 1000	5 to 100	10 to 100
O=C(O)c1cc2c(-c3cncc(-c4ccc(N5CCCC5=O)cc4)c3)ccnc2[nH]1 [Example 163, 4-(5-(4-(2-oxopyrrolidin-1-yl)phenyl)pyridin-3-yl)-1H-pyrrolo[2,3-b]pyridine-2-carboxylic acid]	100 to 1000	5 to 100	10 to 100
Cc1cc(N2CCCC2=O)ccc1-c1cncc(-c2ccncc2)c1 [Example 81, 1-(4-([3,4′-bipyridin]-5-yl)-3-methylphenyl)pyrrolidin-2-one]	1000 to 2500	< 5000	–
COC(=O)c1c[nH]c2nccc(-c3cnc(N)c(-c4ccc(C(=O)N(C)C)cn4)c3)c12 [Example 114, methyl 4-(2′-amino-5-(dimethylcarbamoyl)-[2,3′-bipyridin]-5′-yl)-1H-pyrrolo[2,3-b]pyridine-3-carboxylate]	> 5000	< 5000	–
O=C(NCc1nc2ccccc2o1)c1cc2c(-c3cncc(-c4ccc(N5CCCC5=O)cc4)c3)ccnc2[nH]1 [Example 245, N-(benzo[d]oxazol-2-ylmethyl)-4-(5-(4-(2-oxopyrrolidin-1-yl)phenyl)pyridin-3-yl)-1H-pyrrolo[2,3-b]pyridine-2-carboxamide]	> 5000	–	10 to 100
COCCNC(=O)c1cc2c(-c3cncc(-c4ccc(N5CCCC5=O)cc4)c3)ccnc2[nH]1 [Example 228, N-(2-methoxyethyl)-4-(5-(4-(2-oxopyrrolidin-1-yl)phenyl)pyridin-3-yl)-1H-pyrrolo[2,3-b]pyridine-2-carboxamide]	100 to 1000	–	10 to 100
CN(C)C(=O)c1cnc2ccn(-c3cncc(-c4ccc(N5CCCC5=O)cc4)c3)c2c1 [Example 254, N,N-dimethyl-1-(5-(4-(2-oxopyrrolidin-1-yl)phenyl)pyridin-3-yl)-1H-pyrrolo[3,2-b]pyridine-6-carboxamide]	100 to 1000	–	100 to 1000
O=C(Nc1ccc(-c2cncc(-c3ccnc4[nH]ncc34)c2)cc1)C(=O)N1CC2CCC1C2 (centres unmarked) [Example 203, N-(4-(5-(1H-pyrazolo[3,4-b]pyridin-4-yl)pyridin-3-yl)phenyl)-2-(2-azabicyclo[2.2.1]heptan-2-yl)-2-oxoacetamide]	100 to 1000	–	2500 to 5000
Cn1cc(-c2cncc(-c3ccc(N4CCCC4=O)cc3)c2)c2cncnc21 [Example 153, 1-(4-(5-(7-methyl-7H-pyrrolo[2,3-d]pyrimidin-5-yl)pyridin-3-yl)phenyl)pyrrolidin-2-one]	10 to 100	< 5000	–
CN(C)C(=O)c1ccc(-c2cc(-c3ccnc4[nH]c(C(N)=O)cc34)cnc2N)nc1 [Example 143, 4-(2′-amino-5-(dimethylcarbamoyl)-[2,3′-bipyridin]-5′-yl)-1H-pyrrolo[2,3-b]pyridine-2-carboxamide]	100 to 1000	–	10 to 100
O=C(NCCc1ccccc1)c1cc2c(-c3cncc(-c4ccc(N5CCCC5=O)cc4)c3)ccnc2[nH]1 [Example 236, 4-(5-(4-(2-oxopyrrolidin-1-yl)phenyl)pyridin-3-yl)-N-phenethyl-1H-pyrrolo[2,3-b]pyridine-2-carboxamide]	100 to 1000	–	10 to 100
